Data on 13 molecules can be found in patent EP2506856B1, “AMINOSTEROID COMPOUNDS FOR TOPIC LOCAL APPLICATION FOR SKIN-MUCOSA DECOLONISATION OF STAPHYLOCOCCUS AUREUS” (Assistance Publique Hôpitaux de Marseille, priority 2009, dated 2011).

The test system of one assay is S. aureus ATCC 25923. Nature of the assay: MIC (CMI) determination on reference strain. The assay is classed as cell-based, Staphylococcus aureus. As to the method:
Les composés IIIa et IIIb (selon l'invention) avec R=-(CH2)n1-NHZ et n1=2 à 9 présentent une CMI de 2,5 à 20 µg/ml. Tableau 1 : CMI des dérivés III-a sur S. aureus ATCC 25923
(§1) Le composé III-1 présente la meilleure activité avec une CMI de 1µg/ml pour S. Aureus. Tableau 2 : CMI de la squalamine Ia et des dérivés II-1 et III-1 sur différentes souches de S. aureus.

In assay [1] the test system is S. aureus (souche de référence ATCC 25923). Nature of the assay: Comparative mouse skin colonisation model, single application of ointment, counts at 30 minutes and 1 hour. As to conditions: for activité de décolonisation par rapport à la squalamine et analogues: comparative ointments, 30 minutes and 1 hour. The assay is classed as in vivo, souris. As to the method:
On a également utilisé à fin de comparaisons une pommade à base de mupirocine (Bactroban®), d'acide fusidique (Fucidine®) ou de vancomycine et vaseline à titre de contrôle dans les mêmes conditions expérimentales. Ainsi, 10 µl d'une suspension bactérienne calibrée à 10^6 CFU/ml S. aureus a été appliquée sur la peau préalablement rasée d'une série de 6 souris sur deux quadrants différents (figure 4). Après 2 heures d'incubation et séchage, la pommade a été appliquée sur un des deux quadrants de peau contre une pommade contenant l'excipient seul sur l'autre quadrant. Les quantités de S. aureus, au temps 0 (avant application de la pommade) puis après 30 minutes et 1 heure d'application, ont été déterminées par écouvillonnage cutané et mise en culture sur milieu Chapman pour le dénombrement des colonies comme décrit précédemment.

Assay [2] deals with Staphylococcus aureus (MRSA). Nature of the assay: MIC (CMI) determination on MRSA strain. The assay is classed as cell-based. Conditions: read-out: CMI. The protocol: as §1
Assay [3] has as its system différentes souches de S. aureus (y compris des souches résistantes à la méticilline (MRSA)). Conditions: different S. aureus strains including MRSA; cited from earlier work.
The test system of assay [4] is S. aureus (souche de référence ATCC 25923). Nature of the assay: Mouse skin colonisation model, single application of 1% ointment, counts at day 1 and day 2. Conditions: figure 4, from environ 10^6 CFU/ml at J0. In kind it is in vivo, souris.
Procedure: Afin de tester l'activité in vivo des composés, on a inventé un modèle expérimental de colonisation cutanéo-muqueuse à S. aureus chez la souris. […] Brièvement, 10 µl d'une suspension bactérienne calibrée à 10^8 CFU/ml S. aureus a été appliquée sur la peau préalablement rasée des souris sur deux quadrants différents (figure 3). La colonisation par S. aureus était ensuite suivie quotidiennement pendant 2 jours par écouvillonnage cutané des souris, reprise de l'écouvillon dans 1 ml d'eau stérile et mise en culture de 100 µl sur gélose Chapman à 37°C pendant 24 heures avant énumération des colonies bactériennes.
De la même manière, 10 µl d'une suspension bactérienne calibrée à 10^8 CFU/ml S. aureus a été appliquée sur la peau préalablement rasée d'une série de 4 souris sur deux quadrants différents (figure 3). […] Les quantités de S. aureus, au temps 0 (avant application de la pommade) puis aux jours 1 et 2 (J1 et J2) après application, ont été déterminées par écouvillonnage cutané et mise en culture sur milieu Chapman pour le dénombrement des colonies comme décrit précédemment.
In another assay the test system is Staphylococcus. Conditions: au bout de 24 heures; cited from earlier work.
The next assay has as its system Staphylococcus aureus. Conditions: 1% ointment, 2 fois/jour for 48 heures before surgery, fosses nasales; cited from earlier work.
The mark [5] stands for this setting: Staphylococcus aureus, ATCC25923, dérivés III-a, R=-(CH2)n1-NH2, S. aureus ATCC 25923, read-out: CMI.
Setting [6] is: Staphylococcus aureus, ATCC25923, read-out: CMI.
Setting [7] is: from environ 2.10^4 CFU/ml at t=0, single application of 1% ointment.

The structures appear in SMILES notation. ≈ marks a conversion by molar mass, not a printed value. Like-named read-outs stand apart in the source and are kept apart here. Some results are limits rather than exact numbers.

In the case of `C[C@H](NCCCCCN)[C@H]1CC[C@H]2[C@@H]3CCC4=C[C@@H](NCCCCCN)CC[C@]4(C)[C@H]3CC[C@]12C` [III-a n1=5], in the assay with S. aureus ATCC 25923 (setting [5]), the MIC was found to be 5 mg/L (≈ 10.3 µM).
As to `C[C@H](NCCN)[C@H]1CC[C@H]2[C@@H]3CCC4=C[C@@H](NCCN)CC[C@]4(C)[C@H]3CC[C@]12C` [III-a n1=2], the MIC with S. aureus ATCC 25923 (setting [5]) turned out to be 20 mg/L (≈ 49.7 µM).
The same measure, in the same setting: to `C[C@H](NCCCN)[C@H]1CC[C@H]2[C@@H]3CCC4=C[C@@H](NCCCN)CC[C@]4(C)[C@H]3CC[C@]12C` [III-a n1=3] belongs 5 mg/L (≈ 11.6 µM).
Consider `CC(=O)O[C@H]1C[C@@]2(C)[C@@H](C[C@@H](O)[C@H]3[C@@]4(C)CC[C@@H](O)[C@@H](C)[C@@H]4CC[C@@]32C)/C1=C(\CCC=C(C)C)C(=O)O` [acide fusidique], for which, in assay [1], the “activité de décolonisation par rapport à la squalamine et analogues” value is “activité nettement moindre et moins rapide”.
Take `C[C@H](NCCCCCCCCCN)[C@H]1CC[C@H]2[C@@H]3CCC4=C[C@@H](NCCCCCCCCCN)CC[C@]4(C)[C@H]3CC[C@]12C` [III-a n1=9]: in the assay on S. aureus ATCC 25923 (setting [5]), the MIC came to 5 mg/L (≈ 8.35 µM).
Turning to `CC(C)CCC[C@@H](C)[C@H]1CC[C@H]2[C@@H]3[C@@H](NCCCCN)C=C4C[C@@H](O)CC[C@]4(C)[C@H]3CC[C@]12C` [II-1, 7β-(1,4-diaminobutane)-cholest-5-ene-3β-ol], the MIC came to 2 mg/L (≈ 4.23 µM) in the assay with S. aureus ATCC 25923 (setting [6]) and 2 mg/L (≈ 4.23 µM) in assay [2] (Staphylococcus aureus, MRSA). Further, the “décolonisation escomptée en moins de 24 heures” value in assay [1] (expected from the 60 minute result) was ≥ 99,90%. Further, in assay [1] (setting [7]), the “concentration au bout de 60 minutes” value is on record as 55 CFU/ml. Also, the CMI in assay [3] was 2 µg/mL.
Turning to `C[C@H](NCCCCCCCN)[C@H]1CC[C@H]2[C@@H]3CCC4=C[C@@H](NCCCCCCCN)CC[C@]4(C)[C@H]3CC[C@]12C` [III-a n1=7], the MIC with S. aureus ATCC 25923 (setting [6]) was 2.5 mg/L (≈ 4.6 µM).
On to `C[C@H](NCCCCN)[C@H]1CC[C@H]2[C@@H]3CCC4=C[C@@H](NCCCCN)CC[C@]4(C)[C@H]3CC[C@]12C` [III-a n1=4], for which the MIC with S. aureus ATCC 25923 (setting [6]) is 5 mg/L (≈ 10.9 µM).
`C[C@H](NCCCCCCCCN)[C@H]1CC[C@H]2[C@@H]3CCC4=C[C@@H](NCCCCCCCCN)CC[C@]4(C)[C@H]3CC[C@]12C` [III-a n1=8]: the MIC in the assay with S. aureus ATCC 25923 (setting [5]) is 2.5 mg/L (≈ 4.38 µM).
Take `CC(C)[C@@H](CC[C@@H](C)[C@H]1CC[C@H]2[C@@H]3[C@H](O)C[C@H]4C[C@@H](NCCCNCCCCN)CC[C@]4(C)[C@H]3CC[C@]12C)OS(=O)(=O)O` [Ia, squalamine]: the MIC came out at 2 mg/L (≈ 3.18 µM) with S. aureus ATCC 25923 (ATCC25923, Staphylococcus aureus ATCC 25923, read-out: CMI) and 2 mg/L (≈ 3.18 µM) in assay [2] (Staphylococcus aureus (MRSA)). Besides, the “concentration en bactéries Staphylococcus aureus à J1” value in assay [4] is 10^2 CFU/ml. Also, the “concentration en bactéries Staphylococcus aureus à J2” value in assay [4] is given as ~10^1 CFU/ml. For the same molecule, in assay [1] (1% ointment, single application, figure 6), the “diminution du nombre de CFU/ml après 1 heure” value amounted to 4 logarithmes. Further, the “concentration à t=30 minutes” value in assay [1] (setting [7]) is given as under 1 CFU/ml. For the same molecule, the CMI in assay [3] is 2 µg/mL.
For `C[C@H](NCCCCCCN)[C@H]1CC[C@H]2[C@@H]3CCC4=C[C@@H](NCCCCCCN)CC[C@]4(C)[C@H]3CC[C@]12C` [III-a n1=6], the MIC with S. aureus ATCC 25923 (setting [5]) stood at 2.5 mg/L (≈ 4.86 µM).
With `CN[C@H](CC(C)C)C(=O)N[C@H]1C(=O)N[C@@H](CC(N)=O)C(=O)N[C@H]2C(=O)N[C@H]3C(=O)N[C@H](C(=O)N[C@H](C(=O)O)c4cc(O)cc(O)c4-c4cc3ccc4O)[C@H](O)c3ccc(c(Cl)c3)Oc3cc2cc(c3O[C@@H]2O[C@H](CO)[C@@H](O)[C@H](O)[C@H]2O[C@H]2C[C@](C)(N)[C@H](O)[C@H](C)O2)Oc2ccc(cc2Cl)[C@H]1O` [vancomycine], the “activité de décolonisation par rapport à la squalamine et analogues” value in assay [1] is on record as “activité nettement moindre et moins rapide”.
With `C/C(=C\C(=O)OCCCCCCCCC(=O)O)C[C@@H]1OC[C@H](C[C@@H]2O[C@H]2[C@@H](C)[C@H](C)O)[C@@H](O)[C@H]1O` [mupirocine], in assay [1], the “activité de décolonisation par rapport à la squalamine et analogues” value is on record as “activité nettement moindre et moins rapide”. Also, the “division de la concentration de bactéries Staphylococcus” value in the assay on Staphylococcus is given as 5.10^2 CFU/ml. The “décolonisation des bactéries Staphylococcus aureus” value in the assay with Staphylococcus aureus is given as 99,9%.
